Data: patent publication US11203563B2, “Preparation of zinc linolenate, and application of zinc linolenate in preparing anti-helicobacter pylori drug” (NANJING MEDICAL UNIVERSITY, priority 2018, dated 2021)

Assays:
Experiment in all cases: MIC by microdilution method, non-Helicobacter pylori bacteria
Type in all cases: cell-based
Design in all cases: key: +: Bacterial growth; −: No bacterial growth
Details in all cases: 72 h
[1] = system: Campylobacter jejuni (NCTC11168)
Procedure: (§1) 2.2 Detection of minimum inhibitory concentration (MIC, 100 µL system) of zinc linolenate for non-Helicobacter pylori bacteria by microdilution method
(§2) (1) Zinc linolenate (2 mg/mL) is prepared.
(§3) (3) Bacterial solution preparation: the non-Helicobacter pylori grown in a log phase on a solid plate is taken to make a bacterial suspension with a BHI culture medium, the absorbance (OD600) is adjusted to 0.3 (1×10^8 CFU/mL), and the bacterial suspension is diluted 100 times to 1×10^6 CFU/mL for use.
(§4) (4) Inoculation of bacterial solution: 10 μL of bacterial solution above is taken and added to the 1-8th wells (the concentration of the bacterial solution per well is about 1.0×10^5 CFU/mL). Culture is performed for 72 h to judge the result. The drug concentrations of the first-seventh wells are 128, 64, 32, 16, 8, 4, and 2 μg/mL, respectively.
(§5) The experiment only makes sense when the bacteria obviously grow in the 8th well, i.e. the positive control well (without antibiotics). When a single drift occurs in the microdilution method, the maximum drug concentration that inhibits bacterial growth should be recorded. If there are multiple drifts, the results should not be reported and the experiment should be repeated. The experiment is repeated 3 times for each drug.

[2] = system: Acinetobacter baumannii (ATCC19606)
Procedure: as §1, §2, §3, §4, §5

[3] = system: Salmonella typhi (14028s)
Procedure: as §1, §2, §3, §4, §5

[4] = system: Neisseria gonorrhoeae (ATCC19424)
Procedure: as §1, §2, §3, §4, §5

[5] = system: Moraxella catarrhalis (ATCC25238)
Procedure: as §1, §2, §3, §4, §5

[6] = system: Staphylococcus aureus (ATCC6538)
Procedure: as §1, §2, §3, §4, §5

Shigella dysenteriae = system: Shigella dysenteriae
Procedure: as §1, §2, §3, §4, §5

[7] = system: Actinobacillus actinomycetemcomitans
Procedure: as §1, §2, §3, §4, §5

[8] = system: Enterobacter cloacae (ATCC13047)
Procedure: as §1, §2, §3, §4, §5

[9] = system: Klebsiella pneumoniae (YF173002)
Procedure: as §1, §2, §3, §4, §5

Lactobacillus = system: Lactobacillus
Procedure: as §1, §2, §3, §4, §5

[10] = system: Haemophilus influenzae (ATCC49766)
Procedure: as §1, §2, §3, §4, §5

Candida albicans = system: Candida albicans
Procedure: as §1, §2, §3, §4, §5

[11] = system: Pseudomonas aeruginosa (PA01)
Procedure: as §1, §2, §3, §4, §5

Q: What does the source list for `CC/C=C\C/C=C\C/C=C\CCCCCCCC(=O)[O-].CC/C=C\C/C=C\C/C=C\CCCCCCCC(=O)[O-].[Zn+2]` [zinc linolenate]?
A: Bacterial growth ([1]; zinc linolenate 2 μg/ml): +; Bacterial growth ([1]; zinc linolenate 4 μg/ml): +; Bacterial growth ([1]; zinc linolenate 8 μg/ml): +; Bacterial growth ([1]; zinc linolenate 16 μg/ml): +; Bacterial growth ([1]; zinc linolenate 32 μg/ml): +; Bacterial growth ([1]; zinc linolenate 64 μg/ml): +; Bacterial growth ([1]; zinc linolenate 128 μg/ml): +; Bacterial growth ([2]; zinc linolenate 2 μg/ml): +; Bacterial growth ([2]; zinc linolenate 4 μg/ml): +; Bacterial growth ([2]; zinc linolenate 8 μg/ml): +; Bacterial growth ([2]; zinc linolenate 16 μg/ml): +; Bacterial growth ([2]; zinc linolenate 32 μg/ml): +; Bacterial growth ([2]; zinc linolenate 64 μg/ml): +; Bacterial growth ([2]; zinc linolenate 128 μg/ml): +; Bacterial growth ([3]; zinc linolenate 2 μg/ml): +; Bacterial growth ([3]; zinc linolenate 4 μg/ml): +; Bacterial growth ([3]; zinc linolenate 8 μg/ml): +; Bacterial growth ([3]; zinc linolenate 16 μg/ml): +; Bacterial growth ([3]; zinc linolenate 32 μg/ml): +; Bacterial growth ([3]; zinc linolenate 64 μg/ml): +; Bacterial growth ([3]; zinc linolenate 128 μg/ml): +; Bacterial growth ([4]; zinc linolenate 2 μg/ml): +; Bacterial growth ([4]; zinc linolenate 4 μg/ml): +; Bacterial growth ([4]; zinc linolenate 8 μg/ml): +; Bacterial growth ([4]; zinc linolenate 16 μg/ml): +; Bacterial growth ([4]; zinc linolenate 32 μg/ml): +; Bacterial growth ([4]; zinc linolenate 64 μg/ml): +; Bacterial growth ([4]; zinc linolenate 128 μg/ml): +; Bacterial growth ([5]; zinc linolenate 2 μg/ml): +; Bacterial growth ([5]; zinc linolenate 4 μg/ml): +; Bacterial growth ([5]; zinc linolenate 8 μg/ml): +; Bacterial growth ([5]; zinc linolenate 16 μg/ml): +; Bacterial growth ([5]; zinc linolenate 32 μg/ml): +; Bacterial growth ([5]; zinc linolenate 64 μg/ml): +; Bacterial growth ([5]; zinc linolenate 128 μg/ml): +; Bacterial growth ([6]; zinc linolenate 2 μg/ml): +; Bacterial growth ([6]; zinc linolenate 4 μg/ml): +; Bacterial growth ([6]; zinc linolenate 8 μg/ml): +; Bacterial growth ([6]; zinc linolenate 16 μg/ml): +; Bacterial growth ([6]; zinc linolenate 32 μg/ml): +; Bacterial growth ([6]; zinc linolenate 64 μg/ml): +; Bacterial growth ([6]; zinc linolenate 128 μg/ml): +; Bacterial growth (Shigella dysenteriae; zinc linolenate 2 μg/ml): +; Bacterial growth (Shigella dysenteriae; zinc linolenate 4 μg/ml): +; Bacterial growth (Shigella dysenteriae; zinc linolenate 8 μg/ml): +; Bacterial growth (Shigella dysenteriae; zinc linolenate 16 μg/ml): +; Bacterial growth (Shigella dysenteriae; zinc linolenate 32 μg/ml): +; Bacterial growth (Shigella dysenteriae; zinc linolenate 64 μg/ml): +; Bacterial growth (Shigella dysenteriae; zinc linolenate 128 μg/ml): −; Bacterial growth ([7]; zinc linolenate 2 μg/ml): +; Bacterial growth ([7]; zinc linolenate 4 μg/ml): +; Bacterial growth ([7]; zinc linolenate 8 μg/ml): +; Bacterial growth ([7]; zinc linolenate 16 μg/ml): +; Bacterial growth ([7]; zinc linolenate 32 μg/ml): +; Bacterial growth ([7]; zinc linolenate 64 μg/ml): +; Bacterial growth ([7]; zinc linolenate 128 μg/ml): +; Bacterial growth ([8]; zinc linolenate 2 μg/ml): +; Bacterial growth ([8]; zinc linolenate 4 μg/ml): +; Bacterial growth ([8]; zinc linolenate 8 μg/ml): +; Bacterial growth ([8]; zinc linolenate 16 μg/ml): +; Bacterial growth ([8]; zinc linolenate 32 μg/ml): +; Bacterial growth ([8]; zinc linolenate 64 μg/ml): +; Bacterial growth ([8]; zinc linolenate 128 μg/ml): +; Bacterial growth ([9]; zinc linolenate 2 μg/ml): +; Bacterial growth ([9]; zinc linolenate 4 μg/ml): +; Bacterial growth ([9]; zinc linolenate 8 μg/ml): +; Bacterial growth ([9]; zinc linolenate 16 μg/ml): +; Bacterial growth ([9]; zinc linolenate 32 μg/ml): +; Bacterial growth ([9]; zinc linolenate 64 μg/ml): +; Bacterial growth ([9]; zinc linolenate 128 μg/ml): −; Bacterial growth (Lactobacillus; zinc linolenate 2 μg/ml): +; Bacterial growth (Lactobacillus; zinc linolenate 4 μg/ml): +; Bacterial growth (Lactobacillus; zinc linolenate 8 μg/ml): +; Bacterial growth (Lactobacillus; zinc linolenate 16 μg/ml): +; Bacterial growth (Lactobacillus; zinc linolenate 32 μg/ml): +; Bacterial growth (Lactobacillus; zinc linolenate 64 μg/ml): +; Bacterial growth (Lactobacillus; zinc linolenate 128 μg/ml): −; Bacterial growth ([10]; zinc linolenate 2 μg/ml): +; Bacterial growth ([10]; zinc linolenate 4 μg/ml): +; Bacterial growth ([10]; zinc linolenate 8 μg/ml): +; Bacterial growth ([10]; zinc linolenate 16 μg/ml): +; Bacterial growth ([10]; zinc linolenate 32 μg/ml): +; Bacterial growth ([10]; zinc linolenate 64 μg/ml): +; Bacterial growth ([10]; zinc linolenate 128 μg/ml): +; Bacterial growth (Candida albicans; zinc linolenate 2 μg/ml): +; Bacterial growth (Candida albicans; zinc linolenate 4 μg/ml): +; Bacterial growth (Candida albicans; zinc linolenate 8 μg/ml): +; Bacterial growth (Candida albicans; zinc linolenate 16 μg/ml): +; Bacterial growth (Candida albicans; zinc linolenate 32 μg/ml): +; Bacterial growth (Candida albicans; zinc linolenate 64 μg/ml): +; Bacterial growth (Candida albicans; zinc linolenate 128 μg/ml): +; Bacterial growth ([11]; zinc linolenate 2 μg/ml): +; Bacterial growth ([11]; zinc linolenate 4 μg/ml): +; Bacterial growth ([11]; zinc linolenate 8 μg/ml): +; Bacterial growth ([11]; zinc linolenate 16 μg/ml): +; Bacterial growth ([11]; zinc linolenate 32 μg/ml): +; Bacterial growth ([11]; zinc linolenate 64 μg/ml): +; Bacterial growth ([11]; zinc linolenate 128 μg/ml): +
